Source: patent US20230023559A1, “ARYLMETHYLENE HETEROCYCLIC COMPOUNDS AS KV1.3 POTASSIUM SHAKER CHANNEL BLOCKERS” (D. E. Shaw Research, LLC, priority 2019, published 2023)

Key:
[1] = biological target: T1, Kv1.3 potassium channel (Homo sapiens, UniProt P22001); assay: Kv1.3 potassium channel blocker activity, automated whole-cell patch clamp (Patchliner); assay type: cell-based; settings: CHO-K1 cells stably expressing Kv1.3; whole cell current inhibition; read-out: Kv1.3_IC50
T1 construct: expressed in transfected cells
How it was run: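 Peak-current block was recorded on stable Kv1.3 CHO-K1 cells by automated patch clamp, stepping from a −90 mV holding potential to +40 mV for 100 ms at 0.1 Hz with 10 s breaks between trains. Online P/4 leak subtraction, 10 kHz sampling; compound exposure under 10 s per train.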

[2] = biological target: hERG channel (Homo sapiens, UniProt Q12809); assay: hERG electrophysiology, automated whole-cell patch clamp (Patchliner)
Sequence of hERG channel (Q12809 whole entry): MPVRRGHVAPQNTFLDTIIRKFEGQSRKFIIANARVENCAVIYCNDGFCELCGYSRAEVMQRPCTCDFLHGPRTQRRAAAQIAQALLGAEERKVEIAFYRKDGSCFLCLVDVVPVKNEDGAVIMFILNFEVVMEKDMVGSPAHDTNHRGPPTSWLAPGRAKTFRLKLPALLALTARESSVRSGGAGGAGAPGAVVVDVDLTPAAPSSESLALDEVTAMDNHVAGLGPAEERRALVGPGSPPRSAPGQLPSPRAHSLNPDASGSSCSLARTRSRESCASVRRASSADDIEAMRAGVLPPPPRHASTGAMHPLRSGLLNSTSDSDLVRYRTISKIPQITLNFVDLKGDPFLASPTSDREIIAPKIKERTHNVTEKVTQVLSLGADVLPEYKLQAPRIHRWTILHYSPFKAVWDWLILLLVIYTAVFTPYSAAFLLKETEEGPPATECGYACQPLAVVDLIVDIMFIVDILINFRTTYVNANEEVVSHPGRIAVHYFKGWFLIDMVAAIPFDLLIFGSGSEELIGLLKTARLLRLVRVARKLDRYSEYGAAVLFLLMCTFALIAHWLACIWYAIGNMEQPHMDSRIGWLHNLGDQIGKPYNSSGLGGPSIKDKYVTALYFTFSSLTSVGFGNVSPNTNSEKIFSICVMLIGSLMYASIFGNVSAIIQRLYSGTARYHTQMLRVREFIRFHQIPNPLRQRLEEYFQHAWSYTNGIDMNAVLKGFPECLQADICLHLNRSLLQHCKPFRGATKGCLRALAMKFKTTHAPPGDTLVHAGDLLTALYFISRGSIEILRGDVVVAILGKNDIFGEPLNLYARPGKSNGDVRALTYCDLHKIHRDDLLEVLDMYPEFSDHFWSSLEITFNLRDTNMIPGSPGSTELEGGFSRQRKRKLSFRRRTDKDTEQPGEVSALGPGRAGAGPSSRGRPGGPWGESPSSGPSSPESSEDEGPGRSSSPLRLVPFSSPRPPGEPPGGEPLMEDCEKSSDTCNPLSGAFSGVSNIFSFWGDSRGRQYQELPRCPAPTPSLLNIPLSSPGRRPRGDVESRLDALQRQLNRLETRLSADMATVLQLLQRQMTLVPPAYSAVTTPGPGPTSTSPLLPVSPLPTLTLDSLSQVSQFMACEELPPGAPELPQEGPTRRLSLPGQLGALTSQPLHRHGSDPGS

T1 sequence (P22001 whole entry): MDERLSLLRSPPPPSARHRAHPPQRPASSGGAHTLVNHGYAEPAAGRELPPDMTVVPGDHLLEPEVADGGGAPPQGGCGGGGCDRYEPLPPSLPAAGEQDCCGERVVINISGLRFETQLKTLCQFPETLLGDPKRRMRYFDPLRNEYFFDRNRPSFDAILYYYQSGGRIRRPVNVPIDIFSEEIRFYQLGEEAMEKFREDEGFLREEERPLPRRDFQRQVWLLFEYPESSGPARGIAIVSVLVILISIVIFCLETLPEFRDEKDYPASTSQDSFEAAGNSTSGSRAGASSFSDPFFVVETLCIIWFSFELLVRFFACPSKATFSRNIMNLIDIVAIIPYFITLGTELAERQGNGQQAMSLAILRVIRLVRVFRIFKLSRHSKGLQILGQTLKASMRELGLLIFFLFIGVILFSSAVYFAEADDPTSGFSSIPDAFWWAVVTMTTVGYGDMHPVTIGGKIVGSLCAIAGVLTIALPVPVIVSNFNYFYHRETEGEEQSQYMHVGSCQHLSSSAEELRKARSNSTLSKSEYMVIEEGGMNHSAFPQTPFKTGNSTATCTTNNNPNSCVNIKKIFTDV

| Compound | IC50 [1] | IC50 [2] |
| --- | --- | --- |
| N[C@@H](c1cc(Cl)c(Cl)cc1O)C1CCN(C(=O)C(O)CO)CC1 (stereo partly drawn) [Compound 117, 1-(4-((R)-amino(4,5-dichloro-2-hydroxyphenyl)methyl)piperidin-1-yl)-2,3-dihydroxypropan-1-one] | < 500 nM | > 30 µM |
| NC(c1cc(Cl)c(Cl)cc1O)C1CCN(c2ccccn2)CC1 (stereo not shown) [Compound 70, 2-[amino[1-(pyridin-2-yl)piperidin-4-yl]methyl]-4,5-dichlorophenol Trifluoroacetic Acid] | < 500 nM | < 30 µM |
| Cc1cc(O)c([C@H](N)C2CCN(C(=O)c3c[nH]c(=O)c(C#N)c3)CC2)cc1Cl [Compound 280, (R)-5-(4-(amino (5-chloro-2-hydroxy-4-methylphenyl)methyl)piperidine-1-carbonyl)-2-oxo-1,2-dihydro-pyridine-3-carbonitrile] | < 500 nM | > 30 µM |
| CN1CC(C(=O)N2CCC([C@@H](N)c3cc(Cl)c(Cl)cc3O)CC2)NCC1=O (stereo partly drawn) [Compound 300, 5-[4-[(R)-amino(4,5-dichloro-2-hydroxyphenyl)methyl]piperidine-1-carbonyl]-1-methylpiperazin-2-one Trifluoroacetic Acid] | < 500 nM | > 30 µM |
| N[C@@H](c1cc(Cl)c(Cl)cc1O)C1CCN(C(=O)C2CNC(=O)NC2)CC1 [Compound 275, 5-[4-[(R)-amino(4,5-dichloro-2-hydroxyphenyl)methyl]piperidine-1-carbonyl]-1,3-diazinan-2-one Trifluoroacetic Acid] | < 500 nM | > 30 µM |
| Cc1cc(O)c([C@H](N)C2CCN(C(=O)c3c[nH]c(=O)c(CO)c3)CC2)cc1Cl [Compound 207, (R)-5-(4-(amino (5-chloro-2-hydroxy-4-methylphenyl)methyl)piperidine-1-carbonyl)-3-(hydroxymethyl) pyridin-2(1H)-one] | < 500 nM | > 30 µM |
| NC(c1cc(Cl)c(Cl)cc1O)C1CCN(CC2CC2)CC1 (stereo not shown) [Compound 51, 2-[amino[1-(cyclopropylmethyl)piperidin-4-yl]methyl]-4,5-dichlorophenol Trifluoroacetic Acid] | < 10000 nM | > 30 µM |
| NC(c1cc(Cl)c(Cl)cc1O)C1(F)CCNCC1 (stereo not shown) [Compound 59, 2-[amino(4-fluoropiperidin-4-yl)methyl]-4,5-dichlorophenol Trifluoroacetic Acid] | < 10000 nM | < 30 µM |
| N[C@@H](c1cc2ccccc2cc1O)C1CCN(C(=O)[C@H](O)CO)CC1 [Compound 189, (2R)-1-[4-[(R)-amino(3-hydroxynaphthalen-2-yl)methyl]piperidin-1-yl]-2,3-dihydroxypropan-1-one Trifluoroacetic Acid] | < 500 nM | > 30 µM |
| N[C@@H](c1cc(Cl)c(Cl)cc1O)C1CCN(C(=O)C2CCC(=O)NC2)CC1 (stereo partly drawn) [Compound 299, 5-[4-[(R)-amino(4,5-dichloro-2-hydroxyphenyl)methyl]piperidine-1-carbonyl]piperidin-2-one Trifluoroacetic Acid] | < 500 nM | > 30 µM |
| N[C@@H](c1cc(Cl)c(Cl)cc1O)C1CCN(C(=O)CC2CNC2)CC1 [Compound 103, (R)-1-(4-(amino(4,5-dichloro-2-hydroxyphenyl)methyl)piperidin-1-yl)-2-(azetidin-3-yl)ethanone trifluoroacetic acid] | < 500 nM | > 30 µM |
| Cc1cc(O)c([C@H](N)C2CCN(C(=O)c3cnc4nccn4c3)CC2)cc1Cl [Compound 240, 2-[(R)-amino(1-[imidazo[1,2-a]pyrimidine-6-carbonyl]piperidin-4-yl)methyl]-4-chloro-5-methylphenol Trifluoroacetic Acid] | < 500 nM | > 30 µM |
| Cc1cc(O)c([C@H](N)C2CCN(C(=O)[C@@H]3CCNC3)CC2)cc1Cl [Compound 237, (4-((R)-amino(5-chloro-2-hydroxy-4-methylphenyl)methyl)piperidin-1-yl)((R)-pyrrolidin-3-yl)methanone trifluoroacetic acid] | < 500 nM | > 30 µM |
| N[C@@H](c1cc(Cl)c(Br)cc1O)C1CCN(C(=O)[C@H](O)CO)CC1 [Compound 317, (2R)-1-[4-[(R)-amino(4-bromo-5-chloro-2-hydroxyphenyl)methyl]piperidin-1-yl]-2,3-dihydroxypropan-1-one Trifluoroacetic Acid] | < 500 nM | > 30 µM |
| CNC(c1cc(Cl)c(Cl)cc1O)C1CCN(C(=O)[C@H](O)CO)CC1 (stereo partly drawn) [Compound 196, (2R)-1-[4-[(4,5-dichloro-2-hydroxyphenyl)(methylamino)methyl]piperidin-1-yl]-2,3-dihydroxypropan-1-one] | < 10000 nM | > 30 µM |
| O=S(=O)([C@H]1CCNC1)N1CCC([C@H](O)c2cc(Cl)c(Cl)cc2O)CC1 (single isomer, unassigned; isomer 3) [Compound 121, 4,5-dichloro-2-(hydroxy(1-(pyrrolidin-3-ylsulfonyl)piperidin-4-yl)methyl)phenol Isomer 3] | < 500 nM | > 30 µM |

| Compound | IC50 [1] | IC50 [2] |
| --- | --- | --- |
| Cc1n[nH]c(C)c1C(=O)N1CCC([C@@H](N)c2cc(Cl)c(Cl)cc2O)CC1 [Compound 159, 2-[(R)-amino[1-(3,5-dimethyl-1H-pyrazole-4-carbonyl)piperidin-4-yl]methyl]-4,5-dichlorophenol] | < 10000 nM | > 30 µM |
| O=C([C@@H]1CCNC1)N1CCC(Cc2cc(Cl)c(Cl)cc2O)CC1 [Compound 111, 4,5-dichloro-2-([1-[(3R)-pyrrolidine-3-carbonyl]piperidin-4-yl]methyl)phenol Trifluoroacetic Acid] | < 500 nM | < 30 µM |
| N[C@@H](c1cc(Cl)c(Cl)cc1O)C1CCN(C(=O)[C@@H]2CC[C@H](O)C2)CC1 (single isomer, unassigned; isomer 2) [Compound 179] | < 500 nM | < 30 µM |
| Cc1cc(O)c([C@H](N)C2CCN(C(=O)c3ccc(=O)n(CCO)c3)CC2)cc1Cl [Compound 249, 5-[4-[(R)-amino (5-chloro-2-hydroxy-4-methylphenyl)methyl]piperidine-1-carbonyl]-1-(2-hydroxyethyl) pyridin-2-one trifluoroacetic acid] | < 500 nM | > 30 µM |
| N[C@@H](c1cc(Cl)c(Cl)cc1O)C1CCN(C(=O)C2CC(O)(CO)C2)CC1 (stereo partly drawn) [Compound 213, 2-[(R)-amino([1-[3-hydroxy-3-(hydroxymethyl)cyclobutane-carbonyl]piperidin-4-yl])methyl]-4,5-dichlorophenol trifluoroacetic acid] | < 500 nM | > 30 µM |
| Cc1cc([C@H](N)C2CCN(C(=O)[C@H](O)CO)CC2)c(O)cc1Cl [Compound 198, (2R)-1-[4-[(R)-amino(4-chloro-2-hydroxy-5-methylphenyl)methyl]piperidin-1-yl]-2,3-dihydroxypropan-1-one] | < 10000 nM | > 30 µM |
| N[C@@H](c1cc(Cl)c(Cl)cc1O)C1CCN(C(=O)c2cnc(=O)[nH]c2)CC1 [Compound 277, 5-[4-[(R)-amino(4,5-dichloro-2-hydroxyphenyl)methyl]piperidine-1-carbonyl]-1H-pyrimidin-2-one trifluoroacetic acid] | < 500 nM | > 30 µM |
| Cc1cc(O)c([C@H](N)C2CCN(C(=O)[C@H](O)CO)CC2)cc1F [Compound 283, (2R)-1-[4-[(R)-amino(5-fluoro-2-hydroxy-4-methylphenyl)methyl]piperidin-1-yl]-2,3-dihydroxypropan-1-one] | < 10000 nM | > 30 µM |
| N[C@@H](c1cc(Cl)c(Cl)cc1O)C1CCN(C(=O)c2cn[nH]n2)CC1 [Compound 157, 2-[(R)-amino[1-(1H-1,2,3-triazole-4-carbonyl)piperidin-4-yl]methyl]-4,5-dichlorophenol trifluoroacetic acid] | < 500 nM | > 30 µM |
| N[C@@H](c1cc(Cl)c(Cl)cc1O)C1CCN(C(=O)C2COCCO2)CC1 (stereo partly drawn) [Compound 137, 2-[(R)-amino[1-(1,4-dioxane-2-carbonyl)piperidin-4-yl]methyl]-4,5-dichlorophenol trifluoroacetic acid] | < 500 nM | < 30 µM |
| Nc1nnc(N2CCC([C@@H](N)c3cc(Cl)c(Cl)cc3O)CC2)s1 [Compound 151, 2-[(R)-amino[1-(5-amino-1,3,4-thiadiazol-2-yl)piperidin-4-yl]methyl]-4,5-dichlorophenol Trifluoroacetic Acid] | < 10000 nM | < 30 µM |
| CC(=O)N1CCC(C(N)c2cc(Cl)c(Cl)cc2O)CC1 (stereo not shown) [Compound 9, 1-(4-(amino(4,5-dichloro-2-hydroxyphenyl)methyl)piperidin-1-yl)ethanone] | < 10000 nM | > 30 µM |
| N[C@@H](c1cc(Cl)c(Cl)cc1O)C1CCN(S(=O)(=O)C2CNC2)CC1 [Compound 107, 2-[(R)-amino[1-(azetidine-3-sulfonyl)piperidin-4-yl]methyl]-4,5-dichlorophenol] | < 500 nM | > 30 µM |
| N[C@@H](c1cc(Cl)c(Cl)cc1O)C1CCN(C(=O)[C@@H]2COCCN2)CC1 [Compound 195, (4-((R)-amino(4,5-dichloro-2-hydroxyphenyl)methyl)piperidin-1-yl)((S)-morpholin-3-yl)methanone] | < 500 nM | > 30 µM |
| Cc1cc(O)c([C@H](N)C2CCN(C(=O)c3c[nH]c(=O)c(C)c3)CC2)cc1Cl [Compound 262, 5-[4-[(R)-amino (5-chloro-2-hydroxy-4-methylphenyl)methyl]piperidine-1-carbonyl]-3-methyl-1H-pyridin-2-one trifluoroacetic acid] | < 500 nM | > 30 µM |
| N[C@@H](c1cc(Cl)c(Cl)cc1O)C1CCN(C(=O)[C@@H]2CNC(=O)C2)CC1 [Compound 224, (4S)-4-[4-[(R)-amino(4,5-dichloro-2-hydroxyphenyl)methyl]piperidine-1-carbonyl] pyrrolidin-2-one trifluoroacetic acid] | < 500 nM | > 30 µM |
